Some results are limits rather than exact numbers.

Ki and Ratio data for 34 molecules are collected here from ChEMBL document CHEMBL1134175, “Nipecotic and iso-nipecotic amides as potent and selective somatostatin subtype-2 receptor agonists” (Bioorg Med Chem Lett, 2001).

For experiment [1], the target named is Somatostatin receptor type 3 (Homo sapiens, UniProt P32745). The experiment in a line: Binding affinity to hsst3 was determined.
The target in experiment [2] is T1, Somatostatin receptor type 2 (Homo sapiens, UniProt P30874). Kind of experiment: Binding affinity to Somatostatin receptor type 2 was determined.
T1 sequence (P30874 whole entry): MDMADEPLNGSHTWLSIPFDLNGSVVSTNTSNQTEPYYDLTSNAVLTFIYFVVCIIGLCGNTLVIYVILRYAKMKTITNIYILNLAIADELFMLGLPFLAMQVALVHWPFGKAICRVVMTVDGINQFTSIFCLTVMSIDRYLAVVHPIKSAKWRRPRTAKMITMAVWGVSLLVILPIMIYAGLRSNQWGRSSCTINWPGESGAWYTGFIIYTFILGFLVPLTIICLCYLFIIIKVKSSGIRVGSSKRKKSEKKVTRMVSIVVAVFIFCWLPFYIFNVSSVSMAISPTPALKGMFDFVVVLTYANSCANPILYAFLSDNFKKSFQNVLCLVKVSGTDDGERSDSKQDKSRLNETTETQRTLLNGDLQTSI
Experiment [3] is described as follows: Ratio of binding affinity of h5 to that of binding affinity of h2.
The target in experiment [4] is Somatostatin receptor type 5 (Homo sapiens, UniProt P35346). The experiment in a line: Binding affinity to hsst5 was determined.
Somatostatin receptor type 5, sequence (P35346 whole entry): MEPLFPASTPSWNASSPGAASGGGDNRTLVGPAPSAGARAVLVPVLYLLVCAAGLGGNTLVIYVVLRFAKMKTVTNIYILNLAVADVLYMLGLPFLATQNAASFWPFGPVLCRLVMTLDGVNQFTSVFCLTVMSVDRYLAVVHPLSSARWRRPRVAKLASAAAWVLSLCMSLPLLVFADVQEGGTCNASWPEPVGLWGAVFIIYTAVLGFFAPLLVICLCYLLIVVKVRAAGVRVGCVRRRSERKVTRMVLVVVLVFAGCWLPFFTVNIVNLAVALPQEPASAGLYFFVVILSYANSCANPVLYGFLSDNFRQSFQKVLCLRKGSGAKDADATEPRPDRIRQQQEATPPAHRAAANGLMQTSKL
Experiment [5] addresses T1, Somatostatin receptor type 2. Kind of experiment: Binding affinity to human somatostatin 2 receptor.

Somatostatin receptor type 3, sequence (P32745 whole entry): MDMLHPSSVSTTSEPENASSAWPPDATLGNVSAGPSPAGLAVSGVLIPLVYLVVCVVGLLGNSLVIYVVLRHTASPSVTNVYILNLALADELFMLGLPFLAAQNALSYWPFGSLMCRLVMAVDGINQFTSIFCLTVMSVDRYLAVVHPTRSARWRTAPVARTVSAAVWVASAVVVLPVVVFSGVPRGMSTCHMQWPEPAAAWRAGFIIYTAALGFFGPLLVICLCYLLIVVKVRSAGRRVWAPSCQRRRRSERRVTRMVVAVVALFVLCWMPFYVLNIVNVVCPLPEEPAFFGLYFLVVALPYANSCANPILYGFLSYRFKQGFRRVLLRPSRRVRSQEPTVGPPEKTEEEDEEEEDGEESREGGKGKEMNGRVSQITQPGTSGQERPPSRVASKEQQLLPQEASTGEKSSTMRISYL

Consider `CC(C)C(=O)N1CCC(C(=O)NC(C(=O)N[C@@H](CCCCN)C(=O)OC(C)(C)C)[C@@H](C)c2c[nH]c3ccccc23)CC1` (stereo not given in full), for which the inhibitory constant (Ki) in experiment [1] stood at 5250 nM; in experiment [2], 15 nM; in experiment [4], 2860 nM. Further, the Ratio in experiment [3] is 190.
`CC(C)NC(=O)N1CCCC(C(=O)NC(C(=O)N[C@@H](CCCCN)C(=O)OC(C)(C)C)[C@@H](C)c2c[nH]c3ccccc23)C1` (stereo not given in full): the affinity in experiment [5], expressed as Ki, was 95 nM.
On to `C[C@@H](c1c[nH]c2ccccc12)C(NC(=O)C1CCN(C(=O)c2ccccc2)CC1)C(=O)N[C@@H](CCCCN)C(=O)OC(C)(C)C` (stereo not given in full), for which the Ki in experiment [1] stood at 2660 nM; in experiment [2], 0.5 nM; in experiment [4], 416 nM. In addition, the Ratio in experiment [3] stood at 832.
In the case of `C[C@@H](c1c[nH]c2ccccc12)C(NC(=O)C1CCN(Cc2ccccc2)CC1)C(=O)N[C@@H](CCCCN)C(=O)OC(C)(C)C` (stereo not given in full), the Ki in experiment [2] came to 2.5 nM; in experiment [4], 333 nM. In addition, in experiment [3], the Ratio stood at 133.
Regarding `C[C@@H](c1c[nH]c2ccccc12)C(NC(=O)C1CCCN(C(=O)c2ccccc2)C1)C(=O)N[C@@H](CCCCN)C(=O)OC(C)(C)C` (stereo not given in full), in experiment [5], the affinity, expressed as Ki, was 10 nM.
On the same count and under the same terms, under `C[C@@H](c1c[nH]c2ccccc12)C(NC(=O)C1CCCN(C(=O)NC2CCCCC2)C1)C(=O)N[C@@H](CCCCN)C(=O)OC(C)(C)C` (stereo not given in full) stands 7.2 nM; under `C[C@@H](c1c[nH]c2ccccc12)C(NC(=O)C1CCCN(C(c2ccccc2)c2ccccc2)C1)C(=O)N[C@@H](CCCCN)C(=O)OC(C)(C)C` (stereo not given in full), 31 nM.
Still for that read-out and setting: under `C[C@@H](c1c[nH]c2ccccc12)C(NC(=O)C1CCCN(C(=O)C(c2ccccc2)c2ccccc2)C1)C(=O)N[C@@H](CCCCN)C(=O)OC(C)(C)C` (stereo not given in full) stands 5 nM; under `C[C@@H](c1c[nH]c2ccccc12)C(NC(=O)C1CCCN(Cc2ccc(F)c(F)c2)C1)C(=O)N[C@@H](CCCCN)C(=O)OC(C)(C)C` (stereo not given in full), 2.9 nM; under `C[C@@H](c1c[nH]c2ccccc12)C(NC(=O)C1CCCN(S(=O)(=O)c2cccs2)C1)C(=O)N[C@@H](CCCCN)C(=O)OC(C)(C)C` (stereo not given in full), 14 nM.
Same read-out and setting: the figure for `C[C@@H](c1c[nH]c2ccccc12)C(NC(=O)C1CCCN(Cc2cccc(F)c2F)C1)C(=O)N[C@@H](CCCCN)C(=O)OC(C)(C)C` (stereo not given in full) is 5.7 nM.
As for `C[C@@H](c1c[nH]c2ccccc12)C(NC(=O)C1CCCN(C(=O)c2cccnc2)C1)C(=O)N[C@@H](CCCCN)C(=O)OC(C)(C)C` (stereo not given in full), in experiment [5], the Ki was 85 nM.
The same measure, in the same setting: under `COc1cccc(NC(=O)N2CCCC(C(=O)NC(C(=O)N[C@@H](CCCCN)C(=O)OC(C)(C)C)[C@@H](C)c3c[nH]c4ccccc34)C2)c1` (stereo not given in full) stands 9 nM.
Same read-out and setting: under `COc1cccc(CN2CCCC(C(=O)NC(C(=O)N[C@@H](CCCCN)C(=O)OC(C)(C)C)[C@@H](C)c3c[nH]c4ccccc34)C2)c1` (stereo not given in full) stands 10 nM; under `C[C@@H](c1c[nH]c2ccccc12)C(NC(=O)C1CCCN(C(=O)Nc2ccccc2)C1)C(=O)N[C@@H](CCCCN)C(=O)OC(C)(C)C` (stereo not given in full), 11 nM; under `C[C@@H](c1c[nH]c2ccccc12)C(NC(=O)C1CCCN(C(=O)c2ccc3c(c2)OCO3)C1)C(=O)N[C@@H](CCCCN)C(=O)OC(C)(C)C` (stereo not given in full), 36 nM.
The same measure, in the same setting: the figure for `C[C@@H](c1c[nH]c2ccccc12)C(NC(=O)C1CCCN(Cc2ccc3c(c2Cl)OCO3)C1)C(=O)N[C@@H](CCCCN)C(=O)OC(C)(C)C` (stereo not given in full) is 12 nM.
In the case of `CC(C)S(=O)(=O)N1CCC(C(=O)NC(C(=O)N[C@@H](CCCCN)C(=O)OC(C)(C)C)[C@@H](C)c2c[nH]c3ccccc23)CC1` (stereo not given in full), the Ki in experiment [1] was 3750 nM; in experiment [2], 120 nM; in experiment [4], above 10000 nM. Moreover, the Ratio in experiment [3] is above 83.
With `C[C@@H](c1c[nH]c2ccccc12)C(NC(=O)C1CCCN(Cc2cccc(F)c2)C1)C(=O)N[C@@H](CCCCN)C(=O)OC(C)(C)C` (stereo not given in full), in experiment [5], the Ki came out at 5 nM. This counts as single-digit nanomolar.
Still for that read-out and setting: the figure for `C[C@@H](c1c[nH]c2ccccc12)C(NC(=O)C1CCCN(Cc2ccc3ccccc3c2)C1)C(=O)N[C@@H](CCCCN)C(=O)OC(C)(C)C` (stereo not given in full) is 17 nM.
`CC(C)S(=O)(=O)N1CCCC(C(=O)NC(C(=O)N[C@@H](CCCCN)C(=O)OC(C)(C)C)[C@@H](C)c2c[nH]c3ccccc23)C1` (stereo not given in full) registered an inhibition constant (Ki) in experiment [5] of 35 nM.
The same measure, in the same setting: under `C[C@@H](c1c[nH]c2ccccc12)C(NC(=O)C1CCCNC1)C(=O)N[C@@H](CCCCN)C(=O)OC(C)(C)C` (stereo not given in full) stands 178 nM.
On the same count and under the same terms, under `C[C@@H](c1c[nH]c2ccccc12)C(NC(=O)C1CCCN(Cc2ccccc2)C1)C(=O)N[C@@H](CCCCN)C(=O)OC(C)(C)C` (stereo not given in full) stands 4.6 nM.
On the same count and under the same terms, the figure for `CC(C)CC(=O)N1CCCC(C(=O)NC(C(=O)N[C@@H](CCCCN)C(=O)OC(C)(C)C)[C@@H](C)c2c[nH]c3ccccc23)C1` (stereo not given in full) is 23 nM; for `COc1ccc(S(=O)(=O)N2CCCC(C(=O)NC(C(=O)N[C@@H](CCCCN)C(=O)OC(C)(C)C)[C@@H](C)c3c[nH]c4ccccc34)C2)cc1OC` (stereo not given in full) it is 23 nM; for `C[C@@H](c1c[nH]c2ccccc12)C(NC(=O)C1CCCN(C(=O)c2ccc3[nH]cnc3c2)C1)C(=O)N[C@@H](CCCCN)C(=O)OC(C)(C)C` (stereo not given in full) it is 85 nM.
The molecule `C[C@@H](c1c[nH]c2ccccc12)C(NC(=O)C1CCCN(C(=O)Cc2cc(F)cc(F)c2)C1)C(=O)N[C@@H](CCCCN)C(=O)OC(C)(C)C` (stereo not given in full) yielded a Ki in experiment [5] of 2.3 nM.
On the same count and under the same terms, the figure for `C[C@@H](c1c[nH]c2ccccc12)C(NC(=O)C1CCCN(C(=O)Cc2ccc3c(c2)OCO3)C1)C(=O)N[C@@H](CCCCN)C(=O)OC(C)(C)C` (stereo not given in full) is 10 nM.
The same measure, in the same setting: the figure for `C[C@@H](c1c[nH]c2ccccc12)C(NC(=O)C1CCCN(C(=O)C(O)(c2ccccc2)c2ccccc2)C1)C(=O)N[C@@H](CCCCN)C(=O)OC(C)(C)C` (stereo not given in full) is 2.8 nM; for `COC(=O)[C@H](Cc1ccccc1)NC(=O)N1CCCC(C(=O)NC(C(=O)N[C@@H](CCCCN)C(=O)OC(C)(C)C)[C@@H](C)c2c[nH]c3ccccc23)C1` (stereo not given in full) it is 8.6 nM; for `CC(=O)Nc1cccc(C(=O)N2CCCC(C(=O)NC(C(=O)N[C@@H](CCCCN)C(=O)OC(C)(C)C)[C@@H](C)c3c[nH]c4ccccc34)C2)c1` (stereo not given in full) it is 47 nM.
Same read-out and setting: the figure for `C[C@@H](c1c[nH]c2ccccc12)C(NC(=O)C1CCCN(Cc2ccccc2-c2ccccc2)C1)C(=O)N[C@@H](CCCCN)C(=O)OC(C)(C)C` (stereo not given in full) is 21 nM.
Consider `COC(=O)c1cccc(CN2CCCC(C(=O)NC(C(=O)N[C@@H](CCCCN)C(=O)OC(C)(C)C)[C@@H](C)c3c[nH]c4ccccc34)C2)c1` (stereo not given in full), for which, in experiment [5], the affinity, expressed as Ki, was 11 nM.
Take `C[C@@H](c1c[nH]c2ccccc12)C(NC(=O)C1CCCN(S(=O)(=O)c2ccc(F)cc2)C1)C(=O)N[C@@H](CCCCN)C(=O)OC(C)(C)C` (stereo not given in full): the Ki in experiment [5] came to 11 nM. That is a double-digit nanomolar value.
